From article PMC3533232, “Isolation of the bioactive peptides CCHamide-1 and CCHamide-2 from Drosophila and their putative role in appetite regulation as ligands for G protein-coupled receptors” (Frontiers in Endocrinology, 2012)
Where a SMILES comes first, the peptide text is derived from it. Bridges are numbered along the chain shown (N, C = ends). Where no end group is shown, it is not given here.

Tests used:
[1] = tested on: CHO cells transfected with the vector alone; assay: [Ca2+]i response in CHO cells transfected with the vector alone; assay type: cell-based, Chinese hamster; details: data not shown
Method: (§1) An assay system using CG30106- or CG14593-expressing cells was prepared as previously described ([Ida et al., 2011a],[b]). The full-length cDNA of Drosophila CG30106 (GenBank accession number: NM_136355; residues […] to 1700) and CG14593 (GenBank accession number: NM_136355; residues 656–2185) was obtained by RT-PCR using Drosophila cDNA as the template. The sense and antisense primers for CG30106 were 5′-[…]-3′ and 5′-[…]-3′, respectively. The sense and antisense primers for CG14593 were 5′-[…]-3′ and 5′-[…]-3′, respectively. The amplified cDNA was ligated into the pcDNA3.1 vector (Invitrogen). The expression vector, i.e., CG30106 or CG14593-pcDNA3.1, was transfected into Chinese hamster ovary (CHO) cells by using with Fugene6 transfection reagent (Roche), and stably expressing cells were selected using 1 mg/ml G418. […] Changes in intracellular Ca^2^+ concentrations ([Ca^2^+]i) were measured using the FlexStation 3 fluorometric imaging plate reader to conduct high-throughput measurements of intracellular Ca^2^+ concentration (Molecular Devices, CA, USA; [Marshall et al., 2005]). […] The cells were incubated with 100 μl of Calcium 4 assay kit reagent (Molecular Devices) for 1 h, and then 50 μl of each sample was added to the CHO-CG30106 or CHO-CG14593 cells to induce changes in fluorescence. The maximum [Ca^2^+]i changes were recorded. […]

blowfly Phormia regina = assay: Proboscis extension reflex (PER) test; assay type: in vivo; details: 30 min after injection of 10 pmol (1 μl) into the shoulder, linger solution control 236 mM, p < 0.05, five sets of 20 flies
Method: The proboscis extension reflex (PER) test and feeding test were performed for the blowfly Phormia regina as previously described ([Nisimura et al., 2005]; [Ida et al., 2011a]). CCHamide-2 was dissolved in blowfly linger solution at a concentration of […]. Twenty flies were secured by their wings using washing pins, and the first PER test was performed by using 12 steps of sucrose concentrations that had been prepared by twofold serial dilutions in distilled water, beginning from a sucrose concentration of 1 M. We investigated the PER in three different groups of 20 flies each: no injection, fly linger injection, and fly linger plus peptide injection. The PER tests were performed 30 min after 1 μl of blowfly linger solution with or without peptide was injected into the shoulder of each fly. We repeated five sets of PER tests each, in which 20 flies were used in each batch.
Results are presented as the mean ± SEM for each group. To compare the PER thresholds among the three groups, we used a non-parametric Steel–Dwass test. The criterion for statistical significance was p < 0.05 for all tests. The statistical software program GraphPad PRISM (GraphPad software, CA, USA) was used for analyses.
In contrast, no difference was observed between the mean PER threshold without any injection and 30 min after linger solution injection (222 and 236 mM, respectively, p > 0.05). […]

flies = details: administration of CCHamide-2; ref Hiraguchi et al., paper in preparation; cited from earlier work
Excerpt: In addition, CCHamide-1 and CCHamide-2 have been detected in the nervous system and midgut in a mass spectrometry study performed by [Reiher et al. (2011)]. […] It is generally accepted that brain–gut peptides regulate feeding behavior in mammals ([Williams et al., 2001]). These peptides include neuropeptide Y, peptide YY, gastrin-releasing peptide, vasoactive inte ...

CG14593 = biological target: T1, CG14593 (Drosophila melanogaster, UniProt Q4V622); assay: [Ca2+]i assay in CHO-CG14593 cells (FlexStation 3); assay type: cell-based; details: synthetic peptide not generated; predicted from amount of purified peptide and specific activity
T1 construct: expressed in transfected cells
T1 sequence (Q4V622 1-489): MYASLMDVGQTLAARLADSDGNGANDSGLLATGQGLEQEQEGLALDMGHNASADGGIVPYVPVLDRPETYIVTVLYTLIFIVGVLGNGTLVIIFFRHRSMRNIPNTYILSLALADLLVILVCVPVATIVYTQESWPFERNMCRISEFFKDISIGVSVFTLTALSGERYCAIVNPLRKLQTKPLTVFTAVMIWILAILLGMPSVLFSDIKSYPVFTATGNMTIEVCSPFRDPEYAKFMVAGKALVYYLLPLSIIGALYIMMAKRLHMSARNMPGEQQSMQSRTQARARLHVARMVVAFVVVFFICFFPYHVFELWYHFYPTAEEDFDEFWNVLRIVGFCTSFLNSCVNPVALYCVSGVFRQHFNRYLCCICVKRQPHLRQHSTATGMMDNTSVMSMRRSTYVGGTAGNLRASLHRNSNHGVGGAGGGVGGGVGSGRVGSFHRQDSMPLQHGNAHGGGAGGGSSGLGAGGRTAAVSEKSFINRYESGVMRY
Method: as §1

## CC(C)C[C@@H]1NC(=O)[C@@H](NC(=O)[C@@H](N)CO)CSSC[C@@H](C(=O)N[C@@H](Cc2c[nH]c3ccccc23)C(=O)NCC(=O)N[C@@H](C)C(=O)N[C@@H](Cc2c[nH]cn2)C(N)=O)NC(=O)[C@H](CO)NC(=O)[C@H](Cc2c[nH]cn2)NC(=O)CNC(=O)[C@H](Cc2ccc(O)cc2)NC(=O)[C@H](CCC(=O)O)NC1=O [CCHamide-1] (H-SCLEYGHSCWGAH-NH2; disulfide 2-9)
[1]
  [Ca2+]i response in vector-only CHO cells: Neither CCHamide-2 nor CCHamide-1 induced a response

## CC(C)[C@@H]1NC(=O)[C@H](Cc2c[nH]cn2)NC(=O)CNC(=O)[C@H](Cc2ccc(O)cc2)NC(=O)[C@H](C)NC(=O)[C@H](CCC(N)=O)NC(=O)[C@@H](NC(=O)CN)CSSC[C@@H](C(=O)N[C@@H](Cc2ccc(O)cc2)C(=O)NCC(=O)NCC(=O)N[C@@H](Cc2c[nH]cn2)C(N)=O)NC1=O [CCHamide-2] (H-GCQAYGHVCYGGH-NH2; disulfide 2-9)
[1]
  [Ca2+]i response in vector-only CHO cells: Neither CCHamide-2 nor CCHamide-1 induced a response
Blowfly Phormia regina
  mean PER threshold (sucrose concentration at which 50% of flies show PER): 77.2 mM
flies
  sucrose intake: significantly increased

## KKGCQAYGHVCYGGH-NH2 (disulfide 4-11 (inferred); N-terminus assumed; SMILES CC(C)[C@@H]1NC(=O)[C@H](Cc2c[nH]cn2)NC(=O)CNC(=O)[C@H](Cc2ccc(O)cc2)NC(=O)[C@H](C)NC(=O)[C@H](CCC(N)=O)NC(=O)[C@@H](NC(=O)CNC(=O)[C@H](CCCCN)NC(=O)[C@@H](N)CCCCN)CSSC[C@@H](C(=O)N[C@@H](Cc2ccc(O)cc2)C(=O)NCC(=O)NCC(=O)N[C@@H](Cc2c[nH]cn2)C(N)=O)NC1=O) [N-terminal extended form of CCHamide-2 purified from flies; not synthesized]
CG14593
  predicted potency for activating CG14593: high potency similar to that of other forms of CCHamide-2
